Here are results for 11 compounds from ChEMBL document CHEMBL1201862, “PubChem BioAssay data set” (2004).

SMILES strings stand for the structures. Activity calls are given as the source filed them. Where only a bound is given, the exact number is not on record here.

The target of one experiment is SUMO E1/E2 (Homo sapiens, UniProt P63279+Q9UBE0+Q9UBT2). Briefly: SAR analysis of SUMOylation using HTRF in an in-Vitro dose response assay. [Related pubchem assays (depositor defined):AID2006, AID2011, AID2018, AID2069, AID2658]. The format is functional. Background: Time-resolved FRET reads energy transfer from a long-lived donor to a nearby acceptor.
Chain of SUMO E1/E2 (Q9UBE0 whole entry): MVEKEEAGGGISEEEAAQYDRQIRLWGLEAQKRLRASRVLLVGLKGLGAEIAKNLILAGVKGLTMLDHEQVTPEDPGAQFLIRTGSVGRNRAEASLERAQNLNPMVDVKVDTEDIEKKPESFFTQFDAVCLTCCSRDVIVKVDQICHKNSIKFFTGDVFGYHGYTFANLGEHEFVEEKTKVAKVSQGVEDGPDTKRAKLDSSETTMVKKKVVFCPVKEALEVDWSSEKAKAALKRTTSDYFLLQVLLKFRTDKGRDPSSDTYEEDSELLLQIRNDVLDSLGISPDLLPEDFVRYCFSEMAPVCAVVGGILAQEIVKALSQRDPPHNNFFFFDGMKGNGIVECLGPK
Chain of SUMO E1/E2 (Q9UBT2 whole entry): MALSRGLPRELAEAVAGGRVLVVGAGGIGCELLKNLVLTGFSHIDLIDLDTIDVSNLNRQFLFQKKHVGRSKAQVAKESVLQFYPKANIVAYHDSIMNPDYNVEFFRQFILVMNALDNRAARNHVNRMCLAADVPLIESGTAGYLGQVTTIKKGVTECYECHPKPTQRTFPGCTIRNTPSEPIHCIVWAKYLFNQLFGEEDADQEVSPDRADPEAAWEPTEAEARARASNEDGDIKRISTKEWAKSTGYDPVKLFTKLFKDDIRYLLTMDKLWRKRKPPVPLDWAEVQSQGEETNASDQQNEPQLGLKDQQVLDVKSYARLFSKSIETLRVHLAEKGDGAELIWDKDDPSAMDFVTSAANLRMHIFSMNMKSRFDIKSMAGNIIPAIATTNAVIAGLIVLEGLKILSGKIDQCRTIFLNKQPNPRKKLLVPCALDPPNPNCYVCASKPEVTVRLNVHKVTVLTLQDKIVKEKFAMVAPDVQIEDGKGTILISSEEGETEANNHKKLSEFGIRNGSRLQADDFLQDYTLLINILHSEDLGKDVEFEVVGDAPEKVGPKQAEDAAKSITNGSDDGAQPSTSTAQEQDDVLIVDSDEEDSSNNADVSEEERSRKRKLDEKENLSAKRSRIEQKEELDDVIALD
Chain of SUMO E1/E2 (P63279 whole entry): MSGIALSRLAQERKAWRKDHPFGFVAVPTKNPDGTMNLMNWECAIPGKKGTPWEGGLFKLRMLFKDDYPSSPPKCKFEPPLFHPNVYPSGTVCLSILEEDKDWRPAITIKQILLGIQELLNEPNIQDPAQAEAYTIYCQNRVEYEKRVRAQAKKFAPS
Experiment [1] addresses Lysine-specific demethylase 4C (Homo sapiens, UniProt Q9H3R0). Description: inhibition of JMJD2C H3K9me3 demethylation – biochemical, DELFIA europium, cherry-picked samples, dose response (AID 488835). The experiment is classed as functional.
In experiment [2] the target is T1, Tyrosine-protein phosphatase non-receptor type 7 (Homo sapiens, UniProt P35236).
T1 sequence (P35236 whole entry): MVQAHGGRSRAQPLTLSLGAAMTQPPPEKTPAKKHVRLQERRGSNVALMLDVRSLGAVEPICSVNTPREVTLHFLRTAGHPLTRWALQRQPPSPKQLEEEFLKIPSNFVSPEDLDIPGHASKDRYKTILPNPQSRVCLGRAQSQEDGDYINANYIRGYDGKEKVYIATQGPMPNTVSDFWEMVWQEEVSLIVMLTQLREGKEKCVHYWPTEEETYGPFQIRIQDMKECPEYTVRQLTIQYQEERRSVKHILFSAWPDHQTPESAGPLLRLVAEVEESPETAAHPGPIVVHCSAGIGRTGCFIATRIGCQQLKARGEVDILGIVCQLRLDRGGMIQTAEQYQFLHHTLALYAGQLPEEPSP
The experiment is classed as functional.

In experiment [3] the target is T2, Tyrosine-protein phosphatase non-receptor type 22 (Homo sapiens, UniProt Q9Y2R2).
T2 sequence (Q9Y2R2 whole entry): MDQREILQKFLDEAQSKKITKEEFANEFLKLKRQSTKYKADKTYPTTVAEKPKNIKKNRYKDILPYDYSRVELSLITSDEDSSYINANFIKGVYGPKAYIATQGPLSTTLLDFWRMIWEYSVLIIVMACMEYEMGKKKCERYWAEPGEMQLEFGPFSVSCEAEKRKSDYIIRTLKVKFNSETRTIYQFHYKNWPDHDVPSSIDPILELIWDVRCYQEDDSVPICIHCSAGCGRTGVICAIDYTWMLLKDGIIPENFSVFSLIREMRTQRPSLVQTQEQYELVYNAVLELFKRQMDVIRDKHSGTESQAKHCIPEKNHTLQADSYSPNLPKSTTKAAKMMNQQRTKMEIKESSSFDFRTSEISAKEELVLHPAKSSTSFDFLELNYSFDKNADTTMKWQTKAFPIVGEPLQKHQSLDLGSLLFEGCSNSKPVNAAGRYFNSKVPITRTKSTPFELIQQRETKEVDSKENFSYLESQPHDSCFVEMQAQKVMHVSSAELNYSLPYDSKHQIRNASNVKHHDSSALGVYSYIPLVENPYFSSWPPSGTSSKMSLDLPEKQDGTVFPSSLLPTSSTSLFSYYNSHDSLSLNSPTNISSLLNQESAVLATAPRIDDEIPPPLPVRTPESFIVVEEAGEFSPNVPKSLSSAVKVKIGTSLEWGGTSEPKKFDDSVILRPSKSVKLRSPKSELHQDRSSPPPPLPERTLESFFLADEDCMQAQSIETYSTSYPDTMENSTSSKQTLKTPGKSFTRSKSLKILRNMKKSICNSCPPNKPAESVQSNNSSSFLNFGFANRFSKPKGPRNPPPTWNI
The format is functional.

The target of experiment [4] is T2, Tyrosine-protein phosphatase non-receptor type 22. The format is functional. This is another data set of the same source.
Experiment [5] addresses T3, Runt-related transcription factor 1/Core-binding factor subunit beta (Homo sapiens, UniProt Q01196+Q13951). Description: disruptors of Runt domain/CBFb-SMMHC interaction – biochemical, FRET, Cerulean-Runt, Venus-CBFb-SMMHC, uHTS, […] (AID 1434). The experiment is classed as protein assay.
The target in experiment [6] is T3, Runt-related transcription factor 1/Core-binding factor subunit beta. Briefly: Runt domain/CBFb-SMMHC interaction disruptors – biochemical, TR-FRET (AID 1438). The format is protein assay.
The next experiment addresses T4, Bcl-2-related protein A1 (Mus musculus, UniProt Q07440).
T4 sequence (Q07440 whole entry): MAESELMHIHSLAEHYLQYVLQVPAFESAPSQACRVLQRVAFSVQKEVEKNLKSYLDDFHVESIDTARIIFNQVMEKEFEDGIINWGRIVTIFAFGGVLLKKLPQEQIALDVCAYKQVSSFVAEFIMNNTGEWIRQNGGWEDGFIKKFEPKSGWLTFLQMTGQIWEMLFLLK
The format is functional.

Experiment [7] deals with T5, Ubiquitin-conjugating enzyme E2 N (Homo sapiens, UniProt P61088).
T5 sequence (P61088 whole entry): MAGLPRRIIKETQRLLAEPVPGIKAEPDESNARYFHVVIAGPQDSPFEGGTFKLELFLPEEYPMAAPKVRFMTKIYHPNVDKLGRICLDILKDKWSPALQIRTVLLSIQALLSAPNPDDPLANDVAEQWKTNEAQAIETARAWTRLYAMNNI
The format is functional.

The target of experiment [8] is T5, Ubiquitin-conjugating enzyme E2 N. The experiment is classed as functional. This is another data set of the same source.
For experiment [9], the target named is T6, Type-1 angiotensin II receptor (Homo sapiens, UniProt P30556).
T6 sequence (P30556 whole entry): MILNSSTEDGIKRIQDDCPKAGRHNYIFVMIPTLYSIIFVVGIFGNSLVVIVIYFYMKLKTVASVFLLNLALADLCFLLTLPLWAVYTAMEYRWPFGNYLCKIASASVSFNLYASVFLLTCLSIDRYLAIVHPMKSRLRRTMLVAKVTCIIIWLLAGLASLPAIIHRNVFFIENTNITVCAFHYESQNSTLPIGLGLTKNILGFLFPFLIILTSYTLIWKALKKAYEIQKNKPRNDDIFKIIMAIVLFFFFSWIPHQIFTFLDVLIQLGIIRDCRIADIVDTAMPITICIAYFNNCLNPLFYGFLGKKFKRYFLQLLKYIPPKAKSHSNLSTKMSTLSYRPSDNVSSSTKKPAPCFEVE
Briefly: agonist activity at AGTR1 – cell-based, uHTS hits, selectivity assay for APJ receptor agonist project, dose response (AID 488865).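 Also: beta-arrestin recruitment to AT1 measured by enzyme fragment complementation luminescence.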 The format is functional.

For experiment [10], the target named is T7, Endoribonuclease toxin MazF (Escherichia coli K-12, UniProt P0AE70).
T7 sequence (P0AE70 whole entry): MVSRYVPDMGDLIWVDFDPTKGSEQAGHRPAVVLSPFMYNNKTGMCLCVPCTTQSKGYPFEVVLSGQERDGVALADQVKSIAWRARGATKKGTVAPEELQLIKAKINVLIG
Description: activation of MazEF endoribonuclease cleavage – biochemical, fluorescence, single-stranded RNA substrate, uHTS hits, dose response (AID 588481). The experiment is classed as functional.

For experiment [11], the target named is T7, Endoribonuclease toxin MazF. Briefly: substrate-only fluorescence increase artefacts – biochemical, single-stranded RNase substrate, counter-screen for MazEF activator project, dose response (AID 588502). The experiment is classed as functional. A general note: Counterscreens check selectivity or assay interference.
The target of experiment [12] is T8, E3 ubiquitin-protein ligase XIAP (Homo sapiens, UniProt P98170). Description: Counter Screen using XIAP-Bir3 for Chemical Antagonists of Bir1/2 domains of IAP-family anti-apoptotic proteins. [Related pubchem assays (depositor defined):AID1018, AID1449, AID1514, AID1638, AID1749, AID1750, AID488957, AID488963].
T8 sequence (P98170 whole entry): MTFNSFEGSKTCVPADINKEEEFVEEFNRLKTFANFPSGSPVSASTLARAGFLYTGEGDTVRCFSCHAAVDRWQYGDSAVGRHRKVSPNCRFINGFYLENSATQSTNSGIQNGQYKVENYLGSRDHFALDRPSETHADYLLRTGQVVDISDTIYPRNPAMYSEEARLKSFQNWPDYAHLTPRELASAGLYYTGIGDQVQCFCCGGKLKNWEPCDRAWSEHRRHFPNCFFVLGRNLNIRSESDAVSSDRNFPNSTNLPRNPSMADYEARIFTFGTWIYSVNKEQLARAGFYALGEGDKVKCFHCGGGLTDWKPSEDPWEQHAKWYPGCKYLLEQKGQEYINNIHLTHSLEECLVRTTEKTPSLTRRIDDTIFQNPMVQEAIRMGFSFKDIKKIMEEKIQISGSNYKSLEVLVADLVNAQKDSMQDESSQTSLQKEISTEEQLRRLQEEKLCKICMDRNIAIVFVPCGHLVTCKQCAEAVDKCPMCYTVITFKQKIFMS
Experiment [13] concerns the target T8, E3 ubiquitin-protein ligase XIAP. Description: small molecules displacing peptide from XIAP – biochemical, IAP family, fluorescence polarization (AID 1018). The experiment is classed as functional. For orientation: In fluorescence polarisation assays a small probe gives low polarisation when free and higher when bound to something large.
The target in experiment [14] is T9, DNA repair protein RAD52 homolog (Homo sapiens, UniProt P43351).
T9 sequence (P43351 whole entry): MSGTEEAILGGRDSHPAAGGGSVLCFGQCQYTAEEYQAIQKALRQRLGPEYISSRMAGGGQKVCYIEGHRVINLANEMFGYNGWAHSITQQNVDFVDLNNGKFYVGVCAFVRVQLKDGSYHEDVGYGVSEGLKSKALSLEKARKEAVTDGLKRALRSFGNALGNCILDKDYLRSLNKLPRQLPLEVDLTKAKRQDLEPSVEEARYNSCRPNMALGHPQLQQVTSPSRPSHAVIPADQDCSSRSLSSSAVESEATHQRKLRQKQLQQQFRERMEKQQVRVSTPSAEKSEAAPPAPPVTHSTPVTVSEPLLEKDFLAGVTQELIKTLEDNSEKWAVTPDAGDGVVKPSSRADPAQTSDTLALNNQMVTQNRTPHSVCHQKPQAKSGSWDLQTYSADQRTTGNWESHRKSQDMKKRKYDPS
The experiment is classed as functional, biochemical.

Experiment [15] has as its system Streptococcus sp. 'group A'. Briefly: Streptococcus pyogenes SK(-)GAS viability under kanamycin – luminescence, BacTiterGlo, confirmation, counter-screen for streptokinase expression inhibitor project, dose response (AID 1900). The format is functional, organism-based.
In another experiment the test system is Streptococcus. Briefly: GAS UMAA2166 growth inhibition – luminescence, BacTiterGlo, counter-screen for streptokinase expression inhibitor project, dose response (AID 1915).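 Also: potency for reduction of bacterial viability or growth.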 The experiment is classed as functional, organism-based.
The target of a further experiment is Trypsin (Sus scrofa, UniProt P00761). Briefly: trypsin protease activity blockade – biochemical, quenched peptide fluorescence, cherry-pick, selectivity assay for Rce1 protease inhibitor project, dose response (AID 488789).
Chain of Trypsin (P00761 whole entry): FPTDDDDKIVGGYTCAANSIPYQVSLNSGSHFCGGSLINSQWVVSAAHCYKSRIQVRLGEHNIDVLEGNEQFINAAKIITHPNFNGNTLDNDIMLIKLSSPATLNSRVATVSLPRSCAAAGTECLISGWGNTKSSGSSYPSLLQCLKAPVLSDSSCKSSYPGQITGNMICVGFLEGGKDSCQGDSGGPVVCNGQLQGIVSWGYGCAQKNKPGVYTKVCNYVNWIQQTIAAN
Another experiment addresses CAAX prenyl protease 1 (Saccharomyces cerevisiae S288c, UniProt P47154). Briefly: yeast CAAX protease Ste24 inhibition – biochemical, S. cerevisiae, plate reader, cherry-pick, dose response (AID 488815).

In general, IC50 refers to the point on the concentration scale where inhibition reaches its midpoint. By AC50 is commonly meant the midpoint of the concentration-response curve, whichever way the signal moves. One may read the EC50 as the concentration needed to bring the measured effect to its halfway point.

T3 sequence (Q01196 whole entry, the tested form may be a part): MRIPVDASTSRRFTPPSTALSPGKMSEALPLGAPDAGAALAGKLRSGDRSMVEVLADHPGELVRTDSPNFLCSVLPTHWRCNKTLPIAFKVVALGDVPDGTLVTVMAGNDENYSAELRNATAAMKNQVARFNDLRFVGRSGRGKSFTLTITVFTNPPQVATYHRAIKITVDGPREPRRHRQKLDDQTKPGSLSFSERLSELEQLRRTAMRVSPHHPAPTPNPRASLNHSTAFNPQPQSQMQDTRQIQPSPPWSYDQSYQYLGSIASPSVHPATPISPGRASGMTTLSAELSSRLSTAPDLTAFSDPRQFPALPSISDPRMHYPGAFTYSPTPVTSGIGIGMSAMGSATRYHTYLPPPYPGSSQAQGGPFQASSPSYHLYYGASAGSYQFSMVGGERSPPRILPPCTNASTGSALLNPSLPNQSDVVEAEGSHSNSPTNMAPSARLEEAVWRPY
T3 sequence (Q13951 whole entry, the tested form may be a part): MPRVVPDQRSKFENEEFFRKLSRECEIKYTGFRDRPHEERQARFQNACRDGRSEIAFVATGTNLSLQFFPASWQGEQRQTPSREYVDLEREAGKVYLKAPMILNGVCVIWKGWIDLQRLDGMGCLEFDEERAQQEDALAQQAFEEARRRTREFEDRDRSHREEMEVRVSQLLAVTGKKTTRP
Chain of Lysine-specific demethylase 4C (Q9H3R0 whole entry): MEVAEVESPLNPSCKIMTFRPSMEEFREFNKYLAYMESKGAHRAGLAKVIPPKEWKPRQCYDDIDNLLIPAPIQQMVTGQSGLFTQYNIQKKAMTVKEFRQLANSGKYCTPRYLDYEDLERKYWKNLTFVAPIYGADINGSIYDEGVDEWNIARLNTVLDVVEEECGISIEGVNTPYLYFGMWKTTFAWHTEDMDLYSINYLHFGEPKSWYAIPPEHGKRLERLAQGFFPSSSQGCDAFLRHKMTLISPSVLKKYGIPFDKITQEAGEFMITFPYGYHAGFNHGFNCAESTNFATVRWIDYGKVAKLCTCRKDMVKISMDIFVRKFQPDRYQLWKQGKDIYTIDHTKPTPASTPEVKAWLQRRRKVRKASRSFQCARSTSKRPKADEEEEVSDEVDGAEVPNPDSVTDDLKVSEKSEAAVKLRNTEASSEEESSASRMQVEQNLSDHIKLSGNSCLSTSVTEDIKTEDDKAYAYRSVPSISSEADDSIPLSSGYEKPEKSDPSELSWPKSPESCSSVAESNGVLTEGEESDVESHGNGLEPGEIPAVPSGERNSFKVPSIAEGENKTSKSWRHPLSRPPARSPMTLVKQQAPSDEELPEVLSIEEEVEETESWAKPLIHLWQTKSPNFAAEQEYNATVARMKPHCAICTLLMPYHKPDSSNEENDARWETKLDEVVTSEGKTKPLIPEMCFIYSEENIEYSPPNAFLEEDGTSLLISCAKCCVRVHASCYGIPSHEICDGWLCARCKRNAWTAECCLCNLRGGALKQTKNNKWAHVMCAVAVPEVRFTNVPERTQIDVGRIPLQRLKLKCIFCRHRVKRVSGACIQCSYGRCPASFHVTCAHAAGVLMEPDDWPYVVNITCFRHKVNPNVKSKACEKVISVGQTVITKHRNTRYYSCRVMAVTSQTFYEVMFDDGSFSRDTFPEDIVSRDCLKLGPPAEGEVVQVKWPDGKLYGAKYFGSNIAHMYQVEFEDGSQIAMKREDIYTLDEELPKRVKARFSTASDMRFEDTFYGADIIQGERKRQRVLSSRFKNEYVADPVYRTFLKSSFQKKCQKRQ
Chain of CAAX prenyl protease 1 (P47154 whole entry): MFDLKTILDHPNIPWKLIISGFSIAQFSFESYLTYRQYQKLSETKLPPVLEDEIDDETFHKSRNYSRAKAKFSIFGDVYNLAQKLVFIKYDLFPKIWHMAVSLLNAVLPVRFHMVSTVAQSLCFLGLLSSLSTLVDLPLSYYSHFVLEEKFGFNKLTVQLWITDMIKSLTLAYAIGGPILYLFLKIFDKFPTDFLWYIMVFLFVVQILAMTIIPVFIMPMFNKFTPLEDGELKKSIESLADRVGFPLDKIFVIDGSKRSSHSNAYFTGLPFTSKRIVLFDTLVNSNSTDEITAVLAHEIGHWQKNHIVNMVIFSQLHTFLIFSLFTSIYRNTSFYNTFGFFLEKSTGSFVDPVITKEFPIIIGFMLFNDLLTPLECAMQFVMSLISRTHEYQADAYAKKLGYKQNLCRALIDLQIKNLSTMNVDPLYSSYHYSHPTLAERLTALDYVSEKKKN

For `COc1ccc(CNC(=O)COC(=O)c2cc(-c3cccs3)nc3ccccc23)cc1`, the 50% inhibitory concentration (IC50) at SUMO E1/E2 is 43.3 µM (active).

As for `C=CCn1c(C)c(C=C2C(=O)NC(=O)NC2=O)c2ccccc21`, the concentration at half-maximal activity (AC50) in experiment [1] was 2.9 µM (active).

For the compound `Cc1noc(NS(=O)(=O)c2ccc(NC(=O)c3nn(-c4ccccc4)ccc3=O)cc2)c1C`, the IC50 in experiment [2], in [3] and in experiment [4] was > 79.4 µM (inactive) in each case.

On to `CCc1ccc(C2C3=C(O)CC(C)(C)CC3=Nc3c2c(O)nc2nc(C)nn32)cc1` (stereo not drawn), for which the values for the IC50 in experiment [5] and in [6] were 3.68 µM (active) and 31.2 µM (active), respectively.

As to `CCOc1cccc2sc(N(CCCN(C)C)C(=O)c3ccc(S(=O)(=O)N(C)Cc4ccccc4)cc3)nc12`, the IC50 at Bcl-2-related protein A1 is > 20 µM (inactive); in experiment [7], 8.54 µM (active); in experiment [8], 8.12 µM (active). Besides, the EC50 in experiment [9] was > 100 µM (inactive).

Turning to `CC1(C)OC(c2ccccc2)=C/C(=C/C=C2C(=O)NC(=S)NC2=O)O1`, the AC50 in [1] is 11.6 µM (active). The EC50 in experiment [10] was 11 µM (active); in experiment [11] it was 13.9 µM (active).

For the compound `Cc1ccc2c(c1)C(c1ccccc1)N(C(=O)c1ccc(Br)o1)CC(=O)N2` (stereo not drawn), the IC50 was > 100 µM (inactive) in experiment [12] and > 100 µM (not active) in experiment [13].

As for `Cc1ccsc1/C=C(\C#N)C(=O)NCc1ccco1`, the IC50 in experiment [12] was > 100 µM (inactive); in experiment [13], > 100 µM (not active).

Take `CCN(CC)CCNC(=O)c1ccc(NC(=O)c2cc(-c3ccncc3)nc3ccccc23)cc1`: the values for the IC50 (on Bcl-2-related protein A1; in experiment [7]; in experiment [8]) were > 20 µM (inactive), 17 µM (active) and > 20 µM (inactive), respectively. Moreover, in experiment [14], the half-maximal activity concentration (AC50) is 20.4 µM (active).

With `CC1COc2c(N3CCN(C)CC3)c(F)cc3c(=O)c(C(=O)O)cn1c23` (stereo not drawn) [OFLOXACIN], the figures for the EC50 (in experiment [15]; in the experiment with Streptococcus) were 3.03 µM (active) and 4.11 µM (active), respectively. The values for the half-maximal activity concentration (AC50) at Trypsin and at CAAX prenyl protease 1 were 9.26 µM (active) and 1.95 µM (active), respectively.

As to `CCOC(=O)c1cc2c(=O)n3cccc(C)c3nc2n(Cc2ccco2)/c1=N/C(=O)c1ccccc1`, the results for the IC50 in [5] and in experiment [6] were 13.1 µM (active) and > 100 µM (inactive), respectively.
